From patent publication US12590099B2, “Inhibitors of histone deacetylase useful for the treatment or prevention of HIV infection” (Merck Sharp & Dohme LLC, priority 2018, dated 2026)
Read-outs that look alike come from different tables or passages of the source.

What was measured:
Format in all cases: biochemical
Recombinant human HDAC2 = target: T1, Recombinant human HDAC2 (Homo sapiens, UniProt Q92769); test: Human HDAC enzyme inhibitor Fluor-de-Lys assay, HDAC2
T1 construct: Full length human HDAC2-FLAG was expressed in baculovirus infected Sf9 cells; FLAG (C); made in house; host or cells: Sf9 (baculovirus)
T1 sequence (Q92769 whole entry): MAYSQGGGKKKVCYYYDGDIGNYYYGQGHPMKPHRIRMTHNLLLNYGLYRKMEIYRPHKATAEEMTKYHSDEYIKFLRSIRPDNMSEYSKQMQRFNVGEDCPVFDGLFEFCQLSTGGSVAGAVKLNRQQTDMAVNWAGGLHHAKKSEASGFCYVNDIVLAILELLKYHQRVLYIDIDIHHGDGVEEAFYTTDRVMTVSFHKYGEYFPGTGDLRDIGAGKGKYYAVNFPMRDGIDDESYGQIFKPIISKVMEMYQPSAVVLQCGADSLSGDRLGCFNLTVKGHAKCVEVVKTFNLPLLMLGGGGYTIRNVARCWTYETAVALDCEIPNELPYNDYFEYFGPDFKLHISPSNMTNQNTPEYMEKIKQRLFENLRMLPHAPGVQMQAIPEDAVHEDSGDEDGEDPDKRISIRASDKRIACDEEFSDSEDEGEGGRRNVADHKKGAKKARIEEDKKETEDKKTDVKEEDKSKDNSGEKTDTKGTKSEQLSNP
In short: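 Fluor-de-Lys format at room temperature (23° C.): compounds titrated 10-point, 1:3, preincubated with HDAC before substrate addition. Developer with excess HDAC inhibitor ends the reaction, and trypsin-liberated AMC fluorescence is the read-out.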

Recombinant human HDAC1 = target: T2, Recombinant human HDAC1 (Homo sapiens, UniProt Q13547); test: Human HDAC enzyme inhibitor Fluor-de-Lys assay, HDAC1
T2 construct: FLAG (C); made in house
T2 sequence (Q13547 whole entry): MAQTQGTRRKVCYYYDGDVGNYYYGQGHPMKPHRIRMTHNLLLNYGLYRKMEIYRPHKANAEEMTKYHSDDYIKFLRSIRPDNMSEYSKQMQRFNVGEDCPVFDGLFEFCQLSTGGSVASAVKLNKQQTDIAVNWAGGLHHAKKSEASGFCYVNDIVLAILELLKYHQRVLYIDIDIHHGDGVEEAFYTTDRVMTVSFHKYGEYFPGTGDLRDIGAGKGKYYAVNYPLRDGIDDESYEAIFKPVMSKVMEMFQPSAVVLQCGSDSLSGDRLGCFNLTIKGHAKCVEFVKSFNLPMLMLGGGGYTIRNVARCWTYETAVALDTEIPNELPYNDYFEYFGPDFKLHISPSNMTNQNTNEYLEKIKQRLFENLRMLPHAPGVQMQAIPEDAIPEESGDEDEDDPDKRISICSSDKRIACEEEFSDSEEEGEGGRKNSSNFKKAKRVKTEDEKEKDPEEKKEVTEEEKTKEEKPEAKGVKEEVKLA
In short: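 Fluor-de-Lys format at room temperature (23° C.): compounds titrated 10-point, 1:3, preincubated with HDAC before substrate addition; HDAC1 run at 0.3 nM enzyme with 20 μM BML-KI104. Developer with excess HDAC inhibitor ends the reaction, and trypsin-liberated AMC fluorescence is the read-out.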

Recombinant human HDAC8 = target: T3, Recombinant human HDAC8 (Homo sapiens, UniProt Q9BY41); test: Human HDAC enzyme inhibitor Fluor-de-Lys assay, HDAC8
T3 construct: purchased Enzo Life Sciences BML-SE145-0100
T3 sequence (Q9BY41 1-377): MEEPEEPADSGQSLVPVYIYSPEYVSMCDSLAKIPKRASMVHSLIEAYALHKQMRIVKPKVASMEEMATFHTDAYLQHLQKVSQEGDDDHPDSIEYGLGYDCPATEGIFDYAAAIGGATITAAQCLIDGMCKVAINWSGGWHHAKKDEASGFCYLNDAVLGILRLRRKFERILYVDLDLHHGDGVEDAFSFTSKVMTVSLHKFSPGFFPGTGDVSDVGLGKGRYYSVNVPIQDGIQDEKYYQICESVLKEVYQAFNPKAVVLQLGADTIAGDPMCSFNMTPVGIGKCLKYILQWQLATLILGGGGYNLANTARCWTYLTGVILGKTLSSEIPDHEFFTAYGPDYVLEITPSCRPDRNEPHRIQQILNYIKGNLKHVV

HDAC6 = target: T4, HDAC6 (Homo sapiens, UniProt Q9UBN7); test: Human HDAC enzyme inhibitor Fluor-de-Lys assay, HDAC6
T4 sequence (Q9UBN7 1-1215): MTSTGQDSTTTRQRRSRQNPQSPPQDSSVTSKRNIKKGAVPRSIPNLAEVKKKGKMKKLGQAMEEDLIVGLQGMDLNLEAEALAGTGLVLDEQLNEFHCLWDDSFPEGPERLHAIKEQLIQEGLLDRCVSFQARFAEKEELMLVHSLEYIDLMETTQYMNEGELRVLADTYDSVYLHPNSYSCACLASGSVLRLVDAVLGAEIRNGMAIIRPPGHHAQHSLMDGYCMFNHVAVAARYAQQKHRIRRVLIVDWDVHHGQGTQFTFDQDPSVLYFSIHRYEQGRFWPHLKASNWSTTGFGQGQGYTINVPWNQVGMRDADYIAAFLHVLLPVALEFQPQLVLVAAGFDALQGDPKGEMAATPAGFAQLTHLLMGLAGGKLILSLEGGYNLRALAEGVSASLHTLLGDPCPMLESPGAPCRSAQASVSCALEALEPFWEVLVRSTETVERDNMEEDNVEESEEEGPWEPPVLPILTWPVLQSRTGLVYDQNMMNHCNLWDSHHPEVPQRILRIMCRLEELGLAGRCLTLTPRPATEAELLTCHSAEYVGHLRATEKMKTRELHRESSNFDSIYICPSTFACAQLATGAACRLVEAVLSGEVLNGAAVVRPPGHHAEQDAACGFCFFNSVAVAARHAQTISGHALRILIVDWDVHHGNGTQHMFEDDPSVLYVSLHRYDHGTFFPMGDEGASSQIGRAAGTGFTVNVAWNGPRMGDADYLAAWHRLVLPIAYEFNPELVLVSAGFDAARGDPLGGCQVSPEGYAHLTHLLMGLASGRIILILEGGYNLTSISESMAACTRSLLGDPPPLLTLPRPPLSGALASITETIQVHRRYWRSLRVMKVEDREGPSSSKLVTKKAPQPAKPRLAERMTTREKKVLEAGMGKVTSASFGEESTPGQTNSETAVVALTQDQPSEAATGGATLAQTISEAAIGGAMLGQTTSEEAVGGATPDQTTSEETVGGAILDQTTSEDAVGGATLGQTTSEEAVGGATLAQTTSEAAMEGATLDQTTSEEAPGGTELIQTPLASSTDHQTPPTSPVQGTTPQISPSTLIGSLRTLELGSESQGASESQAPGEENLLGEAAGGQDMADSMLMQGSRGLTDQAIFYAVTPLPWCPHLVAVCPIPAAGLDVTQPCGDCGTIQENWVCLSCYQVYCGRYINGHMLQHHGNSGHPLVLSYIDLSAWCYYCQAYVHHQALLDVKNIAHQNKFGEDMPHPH

[1] = recombinant human HDAC2, Fluor-de-Lys assay
[2] = recombinant human HDAC1, Fluor-de-Lys assay
[3] = recombinant human HDAC8, Fluor-de-Lys assay

SMILES | IC50 (Recombinant human HDAC2; [1]) [nM] | IC50 (Recombinant human HDAC1; [2]) [nM] | IC50 (Recombinant human HDAC8; [3]) [nM] | IC50 (HDAC6; HDAC6, Fluor-de-Lys assay) [nM] | IC50 (Recombinant human HDAC2) [nM] | IC50 (Recombinant human HDAC1) [nM] | IC50 (Recombinant human HDAC8) [nM] | IC50 (HDAC6) [nM]
CCC(=O)CCCCC[C@H](NC(=O)[C@H]1CC12CCN(CC1CC1)CC2)c1ncc(-c2cc3ccc(C)nc3cc2F)[nH]1 [Compound 228] | 0.6 | 0.12 | > 900 | > 900 |  |  |  | 
CCC(=O)CCCCC[C@H](NC(=O)C1=NOC2(CCN(CC)CC2)C1)c1ncc(-c2cc3ccc(=O)n(C)c3cc2OC)o1 [Compound 235] | 12.4 | 0.7 | > 900 | > 900 |  |  |  | 
CCC(=O)CCCCC[C@H](NC(=O)C1(N)CC2(CN(C)C2)C1)c1ncc(-c2cc3ccccc3nc2OC)[nH]1 [Compound 276] | 9.1 | 1.56 | 5000 | 1280 |  |  |  | 
CCC(=O)CCCCC[C@H](NC(=O)C1CC12CCNCC2)c1nnc(-c2cc3ccccc3nc2OC)o1 (stereo partly drawn) [Compound 303] | 40.5 | 17.2 | 29200 | 982 |  |  |  | 
CCC(=O)CCCCC[C@H](NC(=O)C1=NOC2(CCN(CC)CC2)C1)c1ncc(-c2cc3ccc(C)nc3cc2F)o1 [Compound 269] | 36.7 | 5.18 | > 900 | > 900 |  |  |  | 
CCC(=O)CCCCC[C@H](NC(=O)C1=NOC2(CCN(C)CC2)C1)c1ncc(-c2ccc(-c3cnccn3)cc2OC)o1 [Compound 237, N-{(1S)-1-[5-(2-methoxy-4-pyrazin-2-ylphenyl)-1,3-oxazol-2-yl]-7-oxononyl}-8-methyl-1-oxa-2,8-diazaspiro[4.5]dec-2-ene-3-carboxamide] | 27.2 | 2.41 | > 900 | > 900 |  |  |  | 
CCC(=O)CCCCC[C@H](NC(=O)C1CC12CCN(CC)CC2)c1nc(-c2ccc(F)cc2)[nH]c1-c1cn[nH]c1 (stereo partly drawn) [Compound 249] | 88.3 | 17.4 | 31500 | 19300 |  |  |  | 
CCC(=O)CCCCC[C@H](NC(=O)[C@H]1CC12CCN(C)CC2)c1ncc(-c2ccnc(N3CCOCC3)c2F)[nH]1 [Compound 261] | 102 | 25.2 | 4590 | 2470 |  |  |  | 
CCC(=O)CCCCC[C@H](NC(=O)[C@H]1CC12CCN(C(C)C)CC2)c1ncc(-c2ccc3nc(C4CC4)ccc3c2)[nH]1 [Compound 100] |  |  |  |  | < 1.5 | < 1.5 | 8250 | 11900
CCC(=O)CCCCC[C@H](NC(=O)[C@H]1CC12CCN(C)CC2)c1ncc(-c2ccc3c(c2)c2ccccc2n3C)[nH]1 [Compound 265] | 12.4 | 5.14 | 4600 | 630 |  |  |  | 
CCC(=O)CCCCC[C@H](NC(=O)[C@H]1CC12CCN(C)CC2)c1ncc(-c2ccc(F)cc2)[nH]1 [Compound 280] | 122 | 30 | 10800 | 11100 |  |  |  | 
CCC(=O)CCCCC[C@H](NC(=O)[C@@H]1CC12CN(C)C2)c1ncc(-c2cc3ccc(C)nc3cc2OC)o1 (single isomer, unassigned) [Compound 231] | 19.2 | 1.26 | > 900 | 220 |  |  |  | 
CCC(=O)CCCCC[C@H](NC(=O)C1CC12CCN(CC)CC2)c1nc(-c2ccc(F)cc2)[nH]c1-c1ccsc1 (stereo partly drawn) [Compound 250] | 192 | 80.7 | 38300 | 21900 |  |  |  | 
CCC(=O)CCCCC[C@H](NC(=O)[C@H]1CC12CCN(C)CC2)c1[nH]c(-c2ccc(F)cc2)nc1Cl [Compound 240] | 38.1 | 5.73 | 26700 | 38400 |  |  |  | 
CCC(=O)CCCCC[C@H](NC(=O)CC1CC2(CNC2)C1)c1nnc(-c2cc3ccccc3nc2OC)o1 [Compound 301] | 77.6 | 24.6 | 29500 | 3480 |  |  |  | 
CCC(=O)CCCCC[C@H](NC(=O)C1=NOC2(CCN(C)CC2)C1)c1ncc(-c2cc3ccc(C)nc3cc2F)[nH]1 [Compound 232] | 21.4 | 1.33 | > 900 | > 900 |  |  |  | 
CCC(=O)CCCCC[C@H](NC(=O)[C@H]1CC12CCN(C)CC2)c1nnc(-c2cc3ccccc3nc2OC)o1 [Compound 306] | 58.2 | 12.9 | > 45000 | 1170 |  |  |  | 
CCC(=O)CCCCC[C@H](NC(=O)CC1CC2(C1)CN(C)C2)c1nnc(-c2cc3ccccc3nc2OC)o1 [Compound 308] | 97.7 | 27.3 | > 45000 | 1280 |  |  |  | 
CCC(=O)CCCCCC(NC(=O)C1CCC2(CC1)OC(=O)c1cnccc12)c1nnc(-c2cc3ccccc3nc2OC)o1 (stereo not drawn) [Compound 364] | 248 | 63 | 32100 | 1990 |  |  |  | 
CCC(=O)CCCCC[C@H](N)c1ncc(-c2cc3ccc(=O)n(C)c3cc2OC)o1 [Compound 224] | 444 | 38.7 | > 900 | > 900 |  |  |  | 
CCC(=O)CCCCC[C@H](NC(=O)[C@H]1CC12CCN(CC)CC2)c1ncc(-c2cnc3cc(C(F)(F)F)ccc3c2)[nH]1 [Compound 341] | 2.5 | 0.42 | 11900 | 8970 |  |  |  | 
CN1CCC2(CC1)C[C@@H]2C(=O)N[C@@H](CCCCCC(=O)CC1CC1)c1ncc(-c2ccc(F)cc2)[nH]1 [Compound 84] |  |  |  |  | 63.8 | 9.95 | 14300 | 3780
CCC(=O)CCCCC[C@H](NC(=O)[C@H]1CC12CCN(C)CC2)c1ncc(-c2ccc3nc(C)ccc3c2)o1 [Compound 80] |  |  |  |  | 14.8 | 2.89 | > 45000 | 1680
CCC(=O)CCCCCC(NC(=O)C1CC12CCN(CC)CC2)c1nc(-c2ccc(F)cc2)[nH]c1-c1ccnn1C (stereo not drawn) [Compound 253] | 111 | 30.4 | 26800 | > 45000 |  |  |  | 
